From ChEMBL document CHEMBL1201862, “PubChem BioAssay data set” (2004)
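Grown in 96-well plates, cells were treated for 48 hours with each compound at five concentrations. Insufficient inhibition: endpoint recorded as highest concentration tested. GI50 is the concentration that inhibits growth by half.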 Calls of active or inactive are those of the source. No stated cut-off is given here; in the data, active = GI50 up to about 1.1 µM and inactive = higher.

Key:
Assay in all cases: NCI anticancer screen, dose series, 48 h
786-0 = system: 786-0
A549 = system: A549
ACHN = system: ACHN
BT-549 = system: BT-549
CAKI-1 = system: CAKI-1
CCRF-CEM = system: CCRF-CEM
COLO 205 = system: COLO 205
DU-145 = system: DU-145
EKVX = system: EKVX
HCC 2998 = system: HCC 2998
HCT-116 = system: HCT-116
HCT-15 = system: HCT-15
HL-60 = system: HL-60
HOP-62 = system: HOP-62
HOP-92 = system: HOP-92
HT-29 = system: HT-29
Hs-578T = system: Hs-578T
IGROV-1 = system: IGROV-1
K562 = system: K562
KM12 = system: KM12
LOX IMVI = system: LOX IMVI
M14 = system: M14
MCF7 = system: MCF7
MDA-MB-231 = system: MDA-MB-231
MDA-MB-435 = system: MDA-MB-435
MDA-N = system: MDA-N
MOLT-4 = system: MOLT-4
Malme-3M = system: Malme-3M
NCI-H226 = system: NCI-H226
NCI-H23 = system: NCI-H23
NCI-H460 = system: NCI-H460
NCI-H522 = system: NCI-H522
NCI/ADR-RES = system: NCI/ADR-RES
OVCAR-4 = system: OVCAR-4
OVCAR-8 = system: OVCAR-8
PC-3 = system: PC-3
RPMI-8226 = system: RPMI-8226
RXF 393 = system: RXF 393
SF-268 = system: SF-268
SF-295 = system: SF-295
SF-539 = system: SF-539
SK-MEL-28 = system: SK-MEL-28
SK-MEL-5 = system: SK-MEL-5
SK-OV-3 = system: SK-OV-3
SN12C = system: SN12C
SNB-19 = system: SNB-19
SNB-75 = system: SNB-75
SR = system: SR
SW-620 = system: SW-620
T47D = system: T47D
TK-10 = system: TK-10
UACC-257 = system: UACC-257
UACC-62 = system: UACC-62
UO-31 = system: UO-31
OVCAR-3 = system: OVCAR-3
OVCAR-5 = system: OVCAR-5
SK-MEL-2 = system: SK-MEL-2
U-251 = system: U-251

## CCOC(=O)/C(C#N)=C\c1ccc(N(CCC(=O)O)CCC(=O)O)c(I)c1
786-0
  GI50: > 10 µM (inactive)
A549
  GI50: > 10 µM (inactive)
ACHN
  GI50: > 10 µM (inactive)
BT-549
  GI50: > 10 µM (inactive)
CAKI-1
  GI50: > 10 µM (inactive)
CCRF-CEM
  GI50: > 10 µM (inactive)
COLO 205
  GI50: > 10 µM (inactive)
DU-145
  GI50: > 10 µM (inactive)
EKVX
  GI50: > 10 µM (inactive)
HCC 2998
  GI50: > 10 µM (inactive)
HCT-116
  GI50: > 10 µM (inactive)
HCT-15
  GI50: > 10 µM
HL-60
  GI50: > 10 µM (inactive)
HOP-62
  GI50: > 10 µM (inactive)
HOP-92
  GI50: > 10 µM (inactive)
HT-29
  GI50: > 10 µM (inactive)
Hs-578T
  GI50: > 10 µM (inactive)
IGROV-1
  GI50: > 10 µM (inactive)
K562
  GI50: > 10 µM (inactive)
KM12
  GI50: > 10 µM (inactive)
LOX IMVI
  GI50: > 10 µM (inactive)
M14
  GI50: > 10 µM (inactive)
MCF7
  GI50: > 10 µM (inactive)
MDA-MB-231
  GI50: > 10 µM (inactive)
MDA-MB-435
  GI50: > 10 µM (inactive)
MDA-N
  GI50: > 10 µM (inactive)
MOLT-4
  GI50: > 10 µM (inactive)
Malme-3M
  GI50: > 10 µM (inactive)
NCI-H226
  GI50: > 10 µM (inactive)
NCI-H23
  GI50: > 10 µM (inactive)
NCI-H460
  GI50: > 10 µM (inactive)
NCI-H522
  GI50: > 10 µM (inactive)
NCI/ADR-RES
  GI50: > 10 µM (inactive)
OVCAR-4
  GI50: > 10 µM (inactive)
OVCAR-8
  GI50: > 10 µM (inactive)
PC-3
  GI50: > 10 µM (inactive)
RPMI-8226
  GI50: > 10 µM (inactive)
RXF 393
  GI50: > 10 µM (inactive)
SF-268
  GI50: > 10 µM (inactive)
SF-295
  GI50: > 10 µM (inactive)
SF-539
  GI50: > 10 µM (inactive)
SK-MEL-28
  GI50: > 10 µM (inactive)
SK-MEL-5
  GI50: > 10 µM (inactive)
SK-OV-3
  GI50: > 10 µM (inactive)
SN12C
  GI50: > 10 µM (inactive)
SNB-19
  GI50: > 10 µM (inactive)
SNB-75
  GI50: > 10 µM (inactive)
SR
  GI50: > 10 µM (inactive)
SW-620
  GI50: > 10 µM (inactive)
T47D
  GI50: > 10 µM (inactive)
TK-10
  GI50: > 10 µM (inactive)
UACC-257
  GI50: > 10 µM (inactive)
UACC-62
  GI50: > 10 µM (inactive)
UO-31
  GI50: > 10 µM (inactive)

## NC(Cc1ccccc1CP(=O)(O)O)C(=O)O (stereo not drawn)
A549
  GI50: > 100 µM (inactive)
ACHN
  GI50: > 100 µM (inactive)
BT-549
  GI50: > 100 µM (inactive)
CAKI-1
  GI50: > 100 µM (inactive)
CCRF-CEM
  GI50: > 100 µM (inactive)
COLO 205
  GI50: > 100 µM (inactive)
DU-145
  GI50: > 100 µM (inactive)
EKVX
  GI50: > 100 µM (inactive)
HCC 2998
  GI50: > 100 µM (inactive)
HCT-116
  GI50: > 100 µM (inactive)
HCT-15
  GI50: > 100 µM
HL-60
  GI50: > 100 µM (inactive)
HOP-92
  GI50: > 100 µM (inactive)
HT-29
  GI50: > 100 µM (inactive)
Hs-578T
  GI50: > 100 µM (inactive)
IGROV-1
  GI50: > 100 µM (inactive)
K562
  GI50: > 100 µM (inactive)
KM12
  GI50: > 100 µM (inactive)
LOX IMVI
  GI50: > 100 µM (inactive)
M14
  GI50: > 100 µM (inactive)
MCF7
  GI50: > 100 µM (inactive)
MDA-MB-231
  GI50: > 100 µM (inactive)
MDA-MB-435
  GI50: > 100 µM (inactive)
MDA-N
  GI50: > 100 µM (inactive)
MOLT-4
  GI50: > 100 µM (inactive)
NCI-H23
  GI50: > 100 µM (inactive)
NCI-H460
  GI50: > 100 µM (inactive)
NCI-H522
  GI50: > 100 µM (inactive)
NCI/ADR-RES
  GI50: > 100 µM (inactive)
OVCAR-3
  GI50: > 100 µM (inactive)
OVCAR-4
  GI50: > 100 µM (inactive)
OVCAR-5
  GI50: > 100 µM (inactive)
OVCAR-8
  GI50: > 100 µM (inactive)
PC-3
  GI50: > 100 µM (inactive)
RPMI-8226
  GI50: > 100 µM (inactive)
RXF 393
  GI50: > 100 µM (inactive)
SF-268
  GI50: > 100 µM (inactive)
SF-295
  GI50: > 100 µM (inactive)
SF-539
  GI50: > 100 µM (inactive)
SK-MEL-28
  GI50: > 100 µM (inactive)
SK-MEL-2
  GI50: > 100 µM (inactive)
SK-MEL-5
  GI50: > 100 µM (inactive)
SK-OV-3
  GI50: > 100 µM (inactive)
SN12C
  GI50: > 100 µM (inactive)
SNB-19
  GI50: > 100 µM (inactive)
SNB-75
  GI50: > 100 µM (inactive)
SR
  GI50: > 100 µM (inactive)
SW-620
  GI50: > 100 µM (inactive)
T47D
  GI50: 35.9 µM (inactive)
TK-10
  GI50: > 100 µM (inactive)
U-251
  GI50: > 100 µM (inactive)
UACC-257
  GI50: > 100 µM (inactive)
UACC-62
  GI50: 53 µM (inactive)
UO-31
  GI50: > 100 µM (inactive)
